The values below come from patent publication US11787839B2, “Targeting α2δ-1-bound glutamate receptors for treating diseases and disorders” (Board of Regents, The University of Texas System, priority 2017, dated 2023).

Experiment [1] deals with T1, NMDARs of spinally projecting PVN neurons (Rattus norvegicus, UniProt P35439+Q00959+Q00960).
T1 construct: from tissue; host or cells: rat hypothalamic slices containing the PVN (Sprague-Dawley, WKY, SHR) and synaptosomes made from them
Kind of experiment: Recordings of spinally projecting PVN neurons in rat brain slices (Ang II). In kind it is cell-based. An excerpt:
Retrograde labeling of spinally projecting PVN neurons: Rats or mice were anesthetized with 2-3% isoflurane, and their spinal cords at the T1-T4 level were exposed through dorsal laminectomy. A fluorescent microsphere suspension (FluoSpheres, 0.04 μm; Molecular Probes, Invitrogen, Eugene, Oreg.) was pressure ejected (Nanoject II Microinjectors, Drummond Scientific Company, Broomall, Pa.) bilaterally into the IML region of the spinal cord in six separate 50-nl injections using a glass micropipette (tip diameter, 20-30 μm). […] The wound was closed with sutures after injection. Animals were returned to their cages for 4-7 days, which was sufficient time to permit the tracer to be retrogradely transported to the PVN. The animals were inspected daily for motor activity, signs of infection, and food and water intake.
Brain slice preparation: Four to seven days after fluorescent tracer injection, the animals were anesthetized with isoflurane and rapidly decapitated. […] Coronal slices (thickness, 300 μm) containing the PVN were cut from the tissue block in the ice-cold aCSF. […] The brain slices were placed in a glass-bottom chamber and continuously perfused with aCSF at 3.0 ml/min at 34° C. maintained by an inline solution heater and temperature controller.
The labeled PVN neurons were briefly identified with the aid of epifluorescence illumination, and whole-cell recordings from labeled PVN neurons were performed under differential interference contrast optics on an upright microscope (BX50 WI; Olympus Optical, Tokyo, Japan). Recordings of postsynaptic currents began 5 min after the whole-cell access was established and the current reached a steady state.
Signals were processed with an […] amplifier (Axon Instruments, Foster City, Calif.). A liquid junction potential of 15 mV (for the potassium gluconate pipette solution) was corrected during off-line analysis.
Postsynaptic NMDAR currents were elicited by puff application of 100 μmol/L NMDA to the recorded neuron using a positive pressure system (4 p.s.i., 50 ms; Toohey Company, Fairfield, N.J.). The tip of the puff pipette was placed 150 μm from the recorded neuron. […] The NMDAR current data presented in the manuscript were the average of 3 consecutive currents elicited by repeated puff NMDA. The neuron was discarded if the current was not stable.
Ang II, losartan, and NMDA were obtained from Sigma (St. Louis, Mo.). The α2δ-1Tat peptide and scrambled control peptide were synthesized by Bio Basic Inc. (Markham, Ontario, Canada) and validated by liquid chromatography and mass spectrometry. […] All drugs were prepared immediately before the experiments and applied to the slice chamber. The brain slices were first pretreated with Ang II, losartan, α2δ-1Tat peptide, or control peptide in the slice incubation chamber before recording. For electrophysiological recording, the treatment agents were immediately removed and the brain slice transferred to a separate recording chamber.

A further experiment concerns anesthetized rats. The experiment is described as follows: PVN microinjection and recording of RSNA and ABP (Ang II). In kind it is in vivo, rat. As for the experimental part:
PVN microinjection and recording of renal sympathetic nerve activity: Rats were anesthetized with a mixture of α-chloralose (60 mg/kg, i.p.) and urethane (800 mg/kg, i.p.). A retroperitoneal incision was made, and a branch of the left renal postganglionic sympathetic nerve was isolated under a surgical microscope. The renal sympathetic nerve was cut distally to ensure that afferent nerve activity was not recorded. The renal sympathetic nerve activity (RSNA), arterial blood pressure (ABP), and heart rate (HR) were recorded using a 1401-PLUS analog-to-digital converter and Spike2 system (Cambridge Electronic Design, Cambridge, UK). A microinjection pipette (tip diameter, 20-30 μm) was advanced into the PVN according to the following stereotactic coordinates: 1.6-2.0 mm caudal to the bregma, 0.5 mm lateral to the midline, and 7.0-7.5 mm ventral to the dura. The microinjection was done using a calibrated microinjection system (Nanoject II; Drummond Scientific) and monitored using a surgical microscope as described previously (Li and Pan, 2006, 2007; Qiao et al., 2017). Ang II (200 μmol/L, 50 nl) was microinjected into the PVN to observe the change in RSNA and ABP in the absence or presence of α2δ-1Tat peptide (100 μmol/L, 50 nl) or control peptide (100 μmol/L, 50 nl). The microinjections were separated by 10- to 15-min intervals to allow recovery of the response. To determine the location of the injection site and diffusion of the drugs in the PVN, 5% rhodamine-labeled fluorescent microspheres (0.04 μm; Molecular Probes) were included in the injection solution (Li and Pan, 2006, 2007; Qiao et al., 2017).

The subject of a further experiment is MCAO mice. The experiment is described as follows: MCAO ischemic stroke model: neurological deficit and infarct volume. As to conditions: 90 min MCAO, 24 h reperfusion; gabapentin 100 mg/kg i.p. pre- or posttreatment; peptide 200 μg/kg i.p. twice. In kind it is in vivo, mouse. As for the experimental part:
Gabapentin was administered intraperitoneally (i.p.) either before or after initiating MCAO in separate groups of mice (pretreatment and posttreatment groups). […] Saline at the same volume as the gabapentin was administered i.p. in a vehicle group that also received MCAO.
It was then determined whether the α2δ-1-NMDAR interaction is involved in brain injury and neurological deficits caused by MCAO. In this protocol, MCAO-subjected mice with two injections of α2δ-1Tat peptide or control peptide (both 200 μg/kg, i.p.): one at 15 min before MCAO and another immediately before reperfusion. […] Furthermore, the brain infarct volume was much less in mice treated with α2δ-1Tat peptide than in mice treated with the control peptide (FIG. 22D).
Animal model. All procedures and protocols were approved by the Institutional Animal Care and Use Committee of The University of Texas MD Anderson Cancer Center. Adult male wild-type (WT) and conventional Cacna2d1 knockout (KO) mice (25-30 g, 8-10 weeks of age) were used in the study. MCAO was used in mice as an ischemic stroke model. The neurological deficits of mice subjected to MCAO were evaluated using a modified Longa test on a scale of 0-5. The brain coronal sections were stained using 1% 2,3,5-triphenyltetrazolium chloride (TTC), and the stained sections were captured as digital images and quantified for infarct volume.

Another experiment deals with cleaved caspase-3. Kind of experiment: MCAO: cleaved caspase-3 protein levels in brain tissues. It counts as in vivo, mouse. As to conditions: MCAO mice; cortex, hippocampus, striatum. From the text: (C and D) Original gel images (C, two pairs of samples) and quantification (D) of cleaved caspase-3 protein levels in the cerebral cortex, hippocampus, and striatum from MCAO mice treated with α2δ-1Tat peptide or control peptide (n=8 mice per group). Data are shown as means±SEM. *p<0.05 compared with the sham group. #p<0.05 compared with MCAO+vehicle group or control peptide group in the same brain region (repeated measures ANOVA for panel B; paired Student's t-test for panel D).

The next experiment concerns morphine-treated rats. The experiment is described as follows: Opioid-induced hyperalgesia and analgesic tolerance in rats. As to conditions: co-treatment: gabapentin 100 mg/kg i.p. or peptide 1 μg intrathecal.

T1 sequence (Q00959 20-1464 limits assumed, other chains not shown): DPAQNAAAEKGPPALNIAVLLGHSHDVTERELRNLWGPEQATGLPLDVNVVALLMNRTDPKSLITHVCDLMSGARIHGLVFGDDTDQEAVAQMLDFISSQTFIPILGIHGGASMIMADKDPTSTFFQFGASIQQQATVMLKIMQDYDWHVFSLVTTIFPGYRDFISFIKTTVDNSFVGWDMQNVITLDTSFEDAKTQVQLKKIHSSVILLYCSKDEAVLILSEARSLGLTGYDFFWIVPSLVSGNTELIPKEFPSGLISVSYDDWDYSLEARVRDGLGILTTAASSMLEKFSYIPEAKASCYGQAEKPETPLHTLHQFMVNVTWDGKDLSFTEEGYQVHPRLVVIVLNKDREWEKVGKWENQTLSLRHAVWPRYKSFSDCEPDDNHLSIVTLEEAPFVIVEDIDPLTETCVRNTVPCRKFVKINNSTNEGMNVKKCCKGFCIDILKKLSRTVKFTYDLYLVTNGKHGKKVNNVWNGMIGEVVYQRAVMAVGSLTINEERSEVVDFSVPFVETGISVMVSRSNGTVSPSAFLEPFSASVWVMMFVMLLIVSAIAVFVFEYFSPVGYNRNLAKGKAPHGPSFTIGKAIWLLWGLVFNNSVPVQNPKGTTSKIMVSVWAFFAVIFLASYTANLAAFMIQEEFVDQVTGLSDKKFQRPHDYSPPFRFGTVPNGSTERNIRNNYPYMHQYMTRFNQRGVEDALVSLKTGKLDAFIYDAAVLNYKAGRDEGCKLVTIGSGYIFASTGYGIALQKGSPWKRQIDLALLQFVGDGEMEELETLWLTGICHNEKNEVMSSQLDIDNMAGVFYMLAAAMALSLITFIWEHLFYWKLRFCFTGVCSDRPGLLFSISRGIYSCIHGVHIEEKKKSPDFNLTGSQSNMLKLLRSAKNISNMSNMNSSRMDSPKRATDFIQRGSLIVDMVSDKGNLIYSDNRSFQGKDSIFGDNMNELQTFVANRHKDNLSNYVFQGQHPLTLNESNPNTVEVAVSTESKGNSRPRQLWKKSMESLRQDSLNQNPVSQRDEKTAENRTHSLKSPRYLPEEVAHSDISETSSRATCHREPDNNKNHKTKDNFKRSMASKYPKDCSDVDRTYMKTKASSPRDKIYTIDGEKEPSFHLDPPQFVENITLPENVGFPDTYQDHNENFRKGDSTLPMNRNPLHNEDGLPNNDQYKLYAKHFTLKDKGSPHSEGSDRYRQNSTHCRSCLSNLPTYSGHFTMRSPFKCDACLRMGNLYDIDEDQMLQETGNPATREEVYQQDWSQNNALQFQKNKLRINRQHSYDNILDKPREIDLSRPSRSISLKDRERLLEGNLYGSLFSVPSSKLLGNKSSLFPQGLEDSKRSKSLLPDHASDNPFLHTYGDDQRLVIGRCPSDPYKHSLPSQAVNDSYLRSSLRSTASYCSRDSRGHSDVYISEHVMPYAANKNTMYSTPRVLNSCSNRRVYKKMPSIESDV
T1 sequence (Q00960 27-1482, other chains not shown): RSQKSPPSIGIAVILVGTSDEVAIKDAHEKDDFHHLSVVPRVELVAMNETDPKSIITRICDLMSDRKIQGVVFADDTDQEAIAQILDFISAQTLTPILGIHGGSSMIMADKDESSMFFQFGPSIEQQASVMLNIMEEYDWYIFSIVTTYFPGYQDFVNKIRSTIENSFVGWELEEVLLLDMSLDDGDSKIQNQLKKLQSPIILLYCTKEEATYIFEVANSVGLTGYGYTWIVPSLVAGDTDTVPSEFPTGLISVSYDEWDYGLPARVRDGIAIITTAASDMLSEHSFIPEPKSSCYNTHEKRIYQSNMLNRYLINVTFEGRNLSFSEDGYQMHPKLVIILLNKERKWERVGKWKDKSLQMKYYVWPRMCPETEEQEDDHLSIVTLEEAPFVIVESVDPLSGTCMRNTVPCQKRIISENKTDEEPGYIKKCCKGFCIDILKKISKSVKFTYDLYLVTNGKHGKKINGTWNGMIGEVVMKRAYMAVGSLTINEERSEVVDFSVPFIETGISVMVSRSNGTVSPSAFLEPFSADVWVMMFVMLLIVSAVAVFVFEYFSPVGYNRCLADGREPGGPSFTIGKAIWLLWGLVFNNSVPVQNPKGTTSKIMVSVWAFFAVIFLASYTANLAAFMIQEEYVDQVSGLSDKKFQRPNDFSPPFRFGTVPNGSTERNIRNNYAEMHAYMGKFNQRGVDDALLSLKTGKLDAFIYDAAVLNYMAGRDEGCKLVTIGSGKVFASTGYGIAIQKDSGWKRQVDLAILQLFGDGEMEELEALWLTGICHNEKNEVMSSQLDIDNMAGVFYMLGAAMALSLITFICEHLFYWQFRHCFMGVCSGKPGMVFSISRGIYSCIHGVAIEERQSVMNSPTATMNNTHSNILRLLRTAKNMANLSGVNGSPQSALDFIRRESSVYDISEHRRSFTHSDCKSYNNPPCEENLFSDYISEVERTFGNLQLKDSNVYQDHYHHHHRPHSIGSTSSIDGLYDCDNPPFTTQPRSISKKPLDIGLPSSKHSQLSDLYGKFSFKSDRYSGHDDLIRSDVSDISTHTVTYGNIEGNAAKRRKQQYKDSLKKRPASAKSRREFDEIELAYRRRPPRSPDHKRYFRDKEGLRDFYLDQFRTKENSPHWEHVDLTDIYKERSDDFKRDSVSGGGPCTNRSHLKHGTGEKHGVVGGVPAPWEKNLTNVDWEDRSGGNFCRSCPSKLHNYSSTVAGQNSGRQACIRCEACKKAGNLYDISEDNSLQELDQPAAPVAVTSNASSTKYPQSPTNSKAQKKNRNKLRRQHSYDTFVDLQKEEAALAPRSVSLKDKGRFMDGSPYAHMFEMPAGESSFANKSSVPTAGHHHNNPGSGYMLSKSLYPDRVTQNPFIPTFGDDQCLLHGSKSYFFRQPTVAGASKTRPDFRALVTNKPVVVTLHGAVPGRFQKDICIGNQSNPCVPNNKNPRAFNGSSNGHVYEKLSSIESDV

For the compound “Ang II: angiotensin II, obtained from Sigma (DRVYIHPF; Angiotensin-2; UniProt P01019 25-32, looked up)”, in experiment [1] (Ang II 2 μmol/L for 30-60 min), the “amplitude of puff NMDA currents of labeled PVN neurons” value was “markedly increased” and the “baseline frequency of mEPSCs of labeled PVN neurons” value is reported as “significantly increased”. In addition, the “RSNA and mean ABP” value in the experiment on anesthetized rats (Ang II 200 μmol/L, 50 nl into the PVN) is recorded as “significantly increased”.
Consider `NCC1(CC(=O)O)CCCCC1` [gabapentin], for which, in the experiment on MCAO mice, the brain infarct volume entry is “much smaller” and the neurological deficit score entry is given as “significantly improved”. Moreover, the “MCAO-induced apoptotic signaling (cleaved caspase-3)” value with cleaved caspase-3 is on record as “suppresses”. In the experiment with morphine-treated rats, the “reduction in baseline withdrawal thresholds induced by chronic morphine injections” value is “completely blocked” and the “reduction in the analgesic effect of morphine” value was “substantially attenuated”.
“YGRKKRRQRRRVSGLNPSLWSIFGLQFILLWLVSGSRHYLW (a2d1 peptide) [α2δ-1Tat peptide, 30-amino-acid peptide mimicking the C-terminal domain of α2δ-1 fused to the cell-penetrating peptide Tat]”: the “effect of Ang II on mEPSC frequency in pretreated slices” value in experiment [1] (losartan 2 μmol/L, pregabalin 20 μmol/L, peptides 1 μmol/L) is reported as “failed to increase”. The “effect of Ang II on puff NMDA currents in pretreated slices” value in experiment [1] (losartan 2 μmol/L, pregabalin 20 μmol/L, peptides 1 μmol/L, 30 min) is “had no effect”. In the experiment with MCAO mice, the brain infarct volume result is “much less” and the neurological deficit score entry is “significantly reduced”. Moreover, in the experiment on cleaved caspase-3, the “MCAO-induced apoptotic signaling (cleaved caspase-3)” value is “suppresses”. Moreover, in the experiment with morphine-treated rats, the “reduction in baseline withdrawal thresholds induced by chronic morphine injections” value is on record as “completely blocked” and the “reduction in the analgesic effect of morphine” value is on record as “substantially attenuated”. The “ABP and RSNA responses to Ang II after prior peptide microinjection into the PVN” value in the experiment with anesthetized rats (peptides 100 μmol/L, 50 nl) is given as “failed to significantly increase”.
